From patent US9499495B2, “Quinazolines and azaquinazolines as dual inhibitors of RAS/RAF/MEK/ERK and PI3K/AKT/PTEN/mTOR pathways” (Asana Biosciences, LLC, priority 2013, dated 2016)

Tests used:
[1] = tested on: A375 cells; assay: XTT assay for cell viability, A375 cells; type: cell-based; conditions: Homo sapiens, A-375, 72 h
Experimental: Cell lines (A375 ATCC No. CRL-1619, A2058 ATCC No. CRL-11147 and RKO ATCC No. CRL-2577, American Type Culture Collection (ATCC), Manassas Va.) once attaining ˜80% confluency were trypsinized, centrifuged and resuspended in fresh media. Cells (1000-2000/per well) were seeded in 96-well plate and incubated over-night at 37° C. in a 5% CO2 incubator. Compound dilutions were prepared in 100% DMSO followed by dilutions in the respective media. The cells were treated with NCEs for 72 h at 37° C. in 5% CO2 incubator. After 72 h, freshly prepared XTT (1 mg/ml)/PMS (25 μM) solution was added, incubated for 2 to 3 h at 37° C. and the absorbance was measured at 450 nm using an ELISA plate reader. Keeping DMSO control as 100%, the effect of the compound to inhibit the cell proliferation was calculated and the GI50 values were determined using sigmoidal dose response curve fit in GraphPad Prism® v5 software.

[2] = target: T1, mTOR kinase (Homo sapiens, UniProt P42345); assay: mTOR kinase TR-FRET assay; type: biochemical
T1 construct: purchased Millipore, US
T1 sequence (P42345 1362-2549 limits assumed): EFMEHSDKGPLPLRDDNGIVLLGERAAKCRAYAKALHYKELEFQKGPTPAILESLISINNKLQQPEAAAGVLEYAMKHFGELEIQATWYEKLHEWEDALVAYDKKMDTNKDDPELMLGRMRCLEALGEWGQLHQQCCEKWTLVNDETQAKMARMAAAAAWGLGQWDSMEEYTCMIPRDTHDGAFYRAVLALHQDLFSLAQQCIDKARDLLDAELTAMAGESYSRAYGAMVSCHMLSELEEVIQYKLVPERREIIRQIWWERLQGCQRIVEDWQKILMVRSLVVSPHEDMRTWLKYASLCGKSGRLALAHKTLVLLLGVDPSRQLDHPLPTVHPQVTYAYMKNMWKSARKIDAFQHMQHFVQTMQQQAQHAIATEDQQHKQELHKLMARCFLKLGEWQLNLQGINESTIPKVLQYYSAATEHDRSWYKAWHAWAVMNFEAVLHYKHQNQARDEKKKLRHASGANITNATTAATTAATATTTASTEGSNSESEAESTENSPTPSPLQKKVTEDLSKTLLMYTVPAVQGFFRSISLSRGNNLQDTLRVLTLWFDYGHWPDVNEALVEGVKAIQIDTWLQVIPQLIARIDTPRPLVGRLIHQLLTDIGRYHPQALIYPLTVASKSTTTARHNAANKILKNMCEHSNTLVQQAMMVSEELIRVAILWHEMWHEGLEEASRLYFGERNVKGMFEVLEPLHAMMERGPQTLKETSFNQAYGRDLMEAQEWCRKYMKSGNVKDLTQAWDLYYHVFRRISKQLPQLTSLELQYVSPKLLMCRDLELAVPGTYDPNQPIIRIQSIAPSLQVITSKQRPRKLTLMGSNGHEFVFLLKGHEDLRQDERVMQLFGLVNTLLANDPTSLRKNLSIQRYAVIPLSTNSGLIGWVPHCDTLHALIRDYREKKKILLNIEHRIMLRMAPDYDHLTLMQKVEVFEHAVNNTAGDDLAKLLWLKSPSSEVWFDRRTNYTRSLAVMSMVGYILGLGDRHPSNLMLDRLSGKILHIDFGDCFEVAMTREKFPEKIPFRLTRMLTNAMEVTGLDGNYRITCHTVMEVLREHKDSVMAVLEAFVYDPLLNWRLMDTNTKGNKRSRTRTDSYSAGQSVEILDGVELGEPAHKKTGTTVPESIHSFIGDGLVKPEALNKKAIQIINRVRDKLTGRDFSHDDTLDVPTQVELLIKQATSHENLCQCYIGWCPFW
Experimental: Compound inhibition for mTOR kinase was determined by homogeneous TR-FRET assay using ULight-p70 S6K (Thr 389) peptide as substrate. mTOR enzyme (Millipore, US; […]) was used in the assay. The reaction buffer was HEPES (50 mM, pH 7.5), EGTA (1 mM), and MnCl2 (3 mM). Test compound was pre-incubated with mTOR for 30 min followed by 50 nM ULight-p70 S6K (Thr 389) peptide along with ATP (20 μM).
After incubating the reaction mixture for 30 min, Eu-labeled anti-phospho-substrate antibody (1 nM, Perkin Elmer, USA) was added. Fluorescence emission at […] was measured upon excitation at 340 nm. The compound dilution was carried out in 100% DMSO followed by a buffer dilution. The kinase reaction was incubated for 1 h at rt followed by the addition of substrate-ATP mix and incubated at rt for 1 h. The reaction was terminated by the addition of EDTA followed by the addition of detection mix. IC50 values were determined using a sigmoidal dose response curve fit, GraphPad Prism® v5 software.

[3] = tested on: pERK in A375 cells; assay: In Cell Western (ICW) assay, pERK in A375 cells; type: cell-based; conditions: Homo sapiens, A-375, 3 h treatment
Experimental: Cell lines A375, A2058 and RKO obtained from the ATCC as provided above, were grown, and after attaining ˜80% confluency were trypsinized, centrifuged and resuspended in fresh media. The cells were seeded at the specified density (20,000 to 50,000) in a 96-well format black-well clear bottom plate (Corning) and incubated overnight at 37° C. in a 5% CO2 incubator. The next day, compound dilutions of test compounds were prepared in 100% DMSO followed by dilutions in respective media. Treatment of test compounds was performed for 3 h at 37° C. in 5% CO2 incubator. Following 3 h drug treatment, the conditional media was discarded and the cells were washed once with cPBS (PBS containing 0.1% magnesium chloride hexahydrate and 0.1% anhydrous calcium chloride) and fixed with 4% paraformaldehyde in cPBS for 1 h at rt. After fixing, the cells were given three washes using cPBST (cPBS containing 0.1% Triton™ X-100 reagent) and then blocked using blocking solution (5% skimmed milk powder or 5% BSA prepared in cPBST) for 2 h at rt with shaking at 300 rpm. The cells were again washed thrice with cPBST and incubated with primary antibody phospho-p44/42 MAPK(Erk1/2)(Thr202/204) antibody (Cell Signaling, Catalog # 9101L), phospho S6 ribosomal protein (Cell Signaling, Catalog #4858L), phospho AKT (Thr 308) (Cell Signaling, Catalog #9275) or phospho AKT (Ser 473) (Cell Signaling, Catalog #4060L) in specified dilutions (1:500-1:2500), prepared in respective blocking solutions, in a racker overnight at 4° C. The next day, the cells were washed with 1× Delfia® wash buffer (4×1 wash) and incubated with secondary antibody (Delfia®-Eu-N1 labeled anti-rabbit antibody; PerkinElmer, Catalog #AD0105; dilutions: 1:2000 to 1:6000 in Delfia® assay buffer (PerkinElmer, Catalog #1244-111)) for 2 h at rt in the dark at 300 rpm. The cells were then given four washes with 1× Delfia® wash buffer and incubated with Wallac Delfia® Enhancement solution (100 μL; PerkinElmer, Catalog #1244-105) for 20 min at rt in the dark at 300 rpm. The fluorescence emission was then read at 615 nm with an excitation wavelength of 340 nm using a Victor V5 Fluorometer (Perkin Elmer, US). The cells were then washed once with 1×cPBS and incubated with 100 μL of 0.5 mg/mL of Hoechst 33258 dye prepared in cPBS and read at 460 nm with 355 nm excitation, thereby evaluating the correction factor.
The % inhibition for the test compounds of formula (I) (new chemical entities (NCEs)) was calculated keeping DMSO control as 0% and the IC50 values were determined using sigmoidal dose response curve fit in GraphPad Prism® v5 software.

[4] = target: T2, B-RAFV600E (Homo sapiens, UniProt P15056, V600E); assay: B-RAFV600E radiometric assay; type: biochemical; conditions: read-out: Kinase assay B-Raf
T2 construct: purchased Millipore, USA 14-557
T2 sequence (P15056 416-766 V600E limits assumed): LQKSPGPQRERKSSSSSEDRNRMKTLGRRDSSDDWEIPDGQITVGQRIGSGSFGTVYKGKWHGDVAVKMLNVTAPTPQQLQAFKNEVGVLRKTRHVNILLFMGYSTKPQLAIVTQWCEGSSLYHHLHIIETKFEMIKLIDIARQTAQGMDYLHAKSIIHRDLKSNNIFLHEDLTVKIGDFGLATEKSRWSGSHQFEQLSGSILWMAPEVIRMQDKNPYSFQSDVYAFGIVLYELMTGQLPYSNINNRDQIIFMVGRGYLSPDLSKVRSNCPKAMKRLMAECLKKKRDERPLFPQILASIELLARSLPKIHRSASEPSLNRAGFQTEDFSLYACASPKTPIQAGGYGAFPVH
Experimental: Compound inhibition for B-RAFV600E was determined through radiometric assay using a BRAF enzyme (Catalog No. 14-557, Millipore, USA) and MEK-K97M protein as a substrate (Catalog No. 0785-0000-1, ProqQinase GmbH, Germany). The B-RAF kinase catalyzes the phosphorylation of MEK protein in the presence of gamma ATP (PLC-101, Jonaki, CCMB, Hyderabad), cold ATP and Mg^2+.
The phosphorylated protein product is detected by the scintillation counter Topcount® machine (Perkin Elmer). This assay has been adapted from the method previously reported by Yeh et al. (2007, Clinical Cancer Research; 13, 1576-1583). The assay measures the B-RAF mediated transfer of 32P from the gamma position of radiolabeled ATP onto MEK1-KD. The labeled phosphorylated protein was measured in MicroBeta® Trilux Counter (Perkin Elmer). The assay was validated with reference compounds RAF1 Kinase Inhibitor I and ZM 336372 inhibitor which are reported to be inhibitors of B-RAF enzyme (Lackey, 2000, Medicinal Chemistry Letters; 10(3):223-226; Kupcho, “Fluorescent High throughput kinase cascade assays for inhibitor characterization, RAF-MEK-ERK pathway, www.invitrogen.com, and Hall-Jackson, 1999, Chemical Biology; 6(8):559-568). B-RAF enzyme mixture (13 μL) was added to compound wells containing 2 μL of the NCE in 1% DMSO and incubated for 45 min at rt on a shaking incubator at 300 rpm. MEK-K97M (0.5 μg) and cold ATP to a final concentration of 5 μM, and hot ATP 0.1 μCi in a volume of 10 μL was added to each well and incubated for 2 h at rt on a shaking incubator at 300 rpm. The reaction was stopped by addition of […] (13 μL) containing ATP (1 mM: 495 μL 1N HCl and 5 μL 100 mM ATP). Aliquot (30 μL) was then transferred to the center of a 2 cm×2 cm P81 paper. P81 paper was washed 8×5 min each with ortho-phosphoric acid (0.5%). P81 papers are washed twice with acetone for […] Assay squares were allowed to dry for […] at 37° C. P81 paper are transferred to Optiplate™ (Perkin Elmer) and counted in a Topcount® counter (Perkin Elmer). Data was plotted against the compound concentration to generate dose-response curves and IC50 values were determined using a sigmoidal dose response curve fit GraphPad Prism® v5 software.

SMILES	IC50 [1]	IC50 [2]	IC50 [3]	IC50 [4]
CCCS(=O)(=O)Nc1cccc(-c2cc(OC)c3nc(-n4c(C(F)F)nc5ccccc54)nc(N4CCOCC4)c3c2)c1F [Example 9, N-(3-(2-(2-(difluoromethyl)-1H-benzo[d]imidazol-1-yl)-8-methoxy-4-morpholinoquinazolin-6-yl)-2-fluorophenyl)propane-1-sulfonamide]	100 to 1000 nM	100 to 1000 nM	100 to 1000 nM	1 to 100 nM
COc1cc(-c2cccc(NS(=O)(=O)c3c(F)cccc3F)c2F)cc2c(N3CCOCC3)nc(-c3cnc(N)nc3)nc12 [Example 13, N-(3-(2-(2-aminopyrimidin-5-yl)-8-methoxy-4-morpholinoquinazolin-6-yl)-2-fluorophenyl)-2,6-difluorobenzenesulfonamide]	100 to 1000 nM	100 to 1000 nM	100 to 1000 nM	1 to 100 nM
CCCS(=O)(=O)Nc1cccc(-c2cc(OC)c3nc(-c4ccc(NC(=O)NC)cc4)nc(N4CCOCC4)c3c2)c1F [Example 14, N-(2-fluoro-3-(8-methoxy-2-(4-(3-methylureido)phenyl)-4-morpholinoquinazolin-6-yl)phenyl)propane-1-sulfonamide]	100 to 1000 nM	1 to 100 nM	100 to 1000 nM	100 to 1000 nM
CCCS(=O)(=O)Nc1cccc(-c2cc(OC)c3nc(-c4cnc(N)nc4)nc(N4CCOCC4)c3c2)c1F [Example 15, N-(3-(2-(2-aminopyrimidin-5-yl)-8-methoxy-4-morpholinoquinazolin-6-yl)-2-fluorophenyl)propane-1-sulfonamide]	100 to 1000 nM	100 to 1000 nM	100 to 1000 nM	100 to 1000 nM
CCCS(=O)(=O)Nc1cccc(-c2cc(OC)c3nc(-c4ccc(N)nc4)nc(N4CCOCC4)c3c2)c1F [Example 17, N-(3-(2-(6-aminopyridin-3-yl)-8-methoxy-4-morpholinoquinazolin-6-yl)-2-fluorophenyl)propane-1-sulfonamide]	100 to 1000 nM	1 to 100 nM	100 to 1000 nM	1 to 100 nM
CCCS(=O)(=O)Nc1cccc(-c2cc(OC)c3nc(-c4ccc(N)nc4F)nc(N4CCOCC4)c3c2)c1F [Example 18, N-(3-(2-(6-amino-2-fluoropyridin-3-yl)-8-methoxy-4-morpholinoquinazolin-6-yl)-2-fluorophenyl)propane-1-sulfonamide]	100 to 1000 nM	100 to 1000 nM	100 to 1000 nM	100 to 1000 nM
COc1cc(-c2cccc(NS(=O)(=O)c3c(F)cccc3F)c2F)cc2c(N3CCOCC3)nc(-c3ccc(N)nc3)nc12 [Example 19, N-(3-(2-(6-aminopyridin-3-yl)-8-methoxy-4-morpholinoquinazoIin-6-yl)-2-fluorophenyl)-2,6-difluorobenzenesulfonamide]	100 to 1000 nM	100 to 1000 nM	100 to 1000 nM	1 to 100 nM
COc1cc(-c2cccc(NS(=O)(=O)CC(C)C)c2F)cc2c(N3CCOCC3)nc(-c3cnc(N)nc3)nc12 [Example 20, N-(3-(2-(2-aminopyrimidin-5-yl)-8-methoxy-4-morpholinoquinazolin-6-yl)-2-fluorophenyl)-2-methylpropane-1-sulfonamide]	100 to 1000 nM	100 to 1000 nM	100 to 1000 nM	1 to 100 nM
CCS(=O)(=O)Nc1cccc(-c2cc(OC)c3nc(-c4cnc(N)nc4)nc(N4CCOCC4)c3c2)c1F [Example 21, N-(3-(2-(2-aminopyrimidin-5-yl)-8-methoxy-4-morpholinoquinazolin-6-yl)-2-fluorophenyl) \ethanesulfonamide]	1000 to 10000 nM	100 to 1000 nM	100 to 1000 nM	100 to 1000 nM
COc1cc(-c2cccc(NS(=O)(=O)c3cc(F)ccc3F)c2F)cc2c(N3CCOCC3)nc(-c3cnc(N)nc3)nc12 [Example 22, N-(3-(2-(2-aminopyrimidin-5-yl)-8-methoxy-4-morpholinoquinazolin-6-yl)-2-fluorophenyl)-2,5-difluorobenzenesulfonamide]	100 to 1000 nM	100 to 1000 nM	1 to 100 nM	1 to 100 nM
COc1cc(-c2cccc(NS(=O)(=O)CCCF)c2F)cc2c(N3CCOCC3)nc(-c3cnc(N)nc3)nc12 [Example 27, N-(3-(2-(2-aminopyrimidin-5-yl)-8-methoxy-4-morpholinoquinazolin-6-yl)-2-fluorophenyl)-3-fluoropropane-1-sulfonamide]	100 to 1000 nM	100 to 1000 nM	1 to 100 nM	1 to 100 nM
COc1cc(-c2cccc(NS(=O)(=O)c3cc(F)ccc3F)c2F)cc2c(N3CCOCC3)nc(-c3ccc(N)nc3)nc12 [Example 28, N-(3-(2-(6-aminopyridin-3-yl)-8-methoxy-4-morpholinoquinazolin-6-yl)-2-fluorophenyl)-2,5-difluorobenzenesulfonamide]	100 to 1000 nM	100 to 1000 nM	1 to 100 nM	1 to 100 nM
